The target in experiment [1] is phosphodiesterase. Put plainly: calcium-dependent phosphodiesterase assay in the absence of calmodulin. The format is biochemical. As to conditions: Table III. On the procedure:
To sample assay tubes were added the following components: assay buffer, 25 ul; CaCl2, 5 ul; 5'-nucleotidase, 7.5 ul (stock solution is 10 units/ml); calmodulin 5 units; calmodulin inhibitor peptides to obtain the desired final concentration of 50 μM. The volume was then made up to 200 ul with water. Control blanks were prepared replacing the peptides with water. The added components were thoroughly mixed and the tubes incubated at 30° C. for 10 min. Then, 25 ul of cAMP at 10.8 mM was added and incubated for 90 min at 30° C. The reaction was stopped by the addition of 50 ul of 55% trichloroacetic acid (TCA). The samples were centrifuged to remove the protein precipitate and the 50 ul of the supernatant was withdrawn for phosphate measurement. To the supernatant aliquot, 50 ul ammonium molybdate (0.55% in 1.1 N sulfuric acid) was added, followed by the addition of 5 ul of reducing agent (24 g sodium bisulfite, 2.4 g sodium sulfite, 0.5 g of 1-amino-2-naphthol-4-sulfonic acid in 200 ml of water), and the contents were mixed by vortexing. The absorbance of the solution were read at 660 nm using water as a blank, identified as control "Calmo."
As described above, one of the undesirable biological effects of existing calmodulin inhibitors is their non-specific binding to other proteins and the like. Therefore, the specificity of the instant inhibitory peptides for calmodulin was examined. The specificity was determined using the calcium-dependent phosphodiesterase assay described in Example I. The assay was carried out for the determination of IC50 values in the presence of calmodulin (IC50 value for calmodulin) and in the absence of calmodulin (IC50 for phosphodiesterase), the latter of which provides the effect of the inhibitory peptides on the phosphodiesterase.

For experiment [2], the target named is calmodulin (Homo sapiens, UniProt P0DP23). Put plainly: calcium-dependent phosphodiesterase assay (calmodulin activity). The class given is biochemical. Particulars: for SPECIFICITY: comparison of IC50 for phosphodiesterase with IC50 for calmodulin; for calmodulin inhibitory activity, in words: (L)-amino acid peptides of Table II. As for the experimental part:
In the calcium dependent phosphodiesterase assay, calmodulin can be assayed by its ability to stimulate phosphodiesterase activity as determined by a two-step assay procedure illustrated by reactions (1) and (2) below. [drawing 1]
During the first step of the assay cyclic adenosine 3'5'-monophosphate (cAMP) is incubated with calcium-activated phosphodiesterase (Cal-PDE), which hydrolyses the 3'bond producing adenosine 5'-monophosphate (5'-AMP). During the second step, 5'-AMP is quantitatively converted into adenosine and inorganic phosphate (Pi) through the action of a 5-nucleotidase. The reaction is followed by the measurement of the Pi formed by reading the absorbance at 660 nm after reacting with ammonium molybdate. The amount of Pi formed is directly related to the phosphodiesterase activity which depends on the level of activation by calmodulin.
To sample assay tubes were added the following components: assay buffer, 25 ul; CaCl2, 5 ul; 5'-nucleotidase, 7.5 ul (stock solution is 10 units/ml); calmodulin 5 units; calmodulin inhibitor peptides to obtain the desired final concentration of 50 μM. The volume was then made up to 200 ul with water. Control blanks were prepared replacing the peptides with water. The added components were thoroughly mixed and the tubes incubated at 30° C. for 10 min. […] The samples were centrifuged to remove the protein precipitate and the 50 ul of the supernatant was withdrawn for phosphate measurement. […] The absorbance of the solution were read at 660 nm using water as a blank, identified as control "Calmo."
The two controls used in the assay, one without and one with calmodulin, as indicated in FIG. 1 and Table I were as follows,: (1) PDE:
These three controls were used in the calcium-dependent phosphodiesterase assay for reproducibility of the assay.
In addition to the calcium-dependent phosphodiesterase assay data, IC50 values were determined for many of the peptides. The assay carried out for the determination in the IC50 values differed from the above screening assay by the concentration of the peptides being tested.
(3) TFP: trifluoperazine; and (4) Calmidasolium: (1-[bis-(4-chlorophenyl)methyl]-3[-2-(2,4-dichlorophenyl)-2[(2,4-dichlorophenyl)methoxy]-ethyl]-1H-imidazolium chloride. The IC50 values were calculated using sigmoidal curve software (Graphpad, ISI; San Diego, Calif.) using the % inhibition at different mixture concentrations (see protocol for determination of % inhibition).
The (L)-amino acid counterpart for five (5) of the all (D)-amino acid peptides identified from the PS-SCL were synthesized in order to study the stereoselectivity of the inhibition.

[3] abbreviates: Table I, assayed at 75, 50 and 12.5 μM, average of repeated assays, read-out: Average IC50.
Setting [4] is: Table III, in the presence of calmodulin, read-out: IC50 (μM) for calmodulin.
The mark [5] stands for this setting: Table II, (L)-amino acid peptides, concentrations 0.2 to 50.0 μM, read-out: IC50.

The structures appear in SMILES notation. Read-outs that look alike come from different tables or passages of the source. Square brackets hold non-standard residues; d marks the D form. Peptide text beside a SMILES is read from it.

The term IC50 denotes the concentration at which inhibition is half-maximal. Consider `CC[C@@H](C)[C@@H](NC(=O)[C@@H](CCC(N)=O)NC(=O)[C@@H](CC(C)C)NC(C)=O)C(=O)N[C@@H](C(=O)N[C@H](CC(C)C)C(=O)N[C@H](Cc1c[nH]c2ccccc12)C(N)=O)[C@H](C)CC` [Ac-(D)Leu-(D)Gln-(D)Ile-(D)Ile-(D)Leu-(D)Trp-NH2] (Ac-[dL][dQ][dI][dI][dL][dW]-NH2), for which the IC50 in experiment [1] worked out at 119 µM; in experiment [2] (setting [3]) it was 27 µM; in experiment [2] (setting [4]) it was 25 µM. In experiment [2], the SPECIFICITY was 4.8.
As for `CC(=O)N[C@H](CC(C)C)C(=O)N[C@H](Cc1c[nH]c2ccccc12)C(=O)N[C@H](CCCNC(=N)N)C(=O)N[C@H](Cc1c[nH]cn1)C(=O)N[C@H](Cc1c[nH]cn1)C(=O)N[C@H](Cc1c[nH]c2ccccc12)C(N)=O` [Ac-(D)Leu-(D)Trp-(D)Arg-(D)His-(D)His-(D)Trp-NH2] (Ac-[dL][dW][dR][dH][dH][dW]-NH2), the IC50 in experiment [1] worked out at 112 µM; in experiment [2] (setting [3]) it was 1.1 µM. Also, the SPECIFICITY in experiment [2] is on record as 100.
In the case of `CC(=O)N[C@H](CC(C)C)C(=O)N[C@H](Cc1c[nH]c2ccccc12)C(=O)N[C@H](CCCNC(=N)N)C(=O)N[C@H](Cc1c[nH]cn1)C(=O)N[C@H](CC(C)C)C(=O)N[C@H](Cc1c[nH]c2ccccc12)C(N)=O` [Ac-(D)Leu-(D)Trp-(D)Arg-(D)His-(D)Leu-(D)Trp-NH2] (Ac-[dL][dW][dR][dH][dL][dW]-NH2), the IC50 in experiment [1] stood at 68 µM; in experiment [2] (setting [3]), 5.9 µM; in experiment [2] (setting [4]), 6.7 µM. In experiment [2], the SPECIFICITY is given as 10.
In the case of `CC[C@@H](C)[C@@H](NC(=O)[C@@H](CCCNC(=N)N)NC(=O)[C@@H](Cc1c[nH]c2ccccc12)NC(=O)[C@@H](CC(C)C)NC(C)=O)C(=O)N[C@H](Cc1c[nH]cn1)C(=O)N[C@H](Cc1c[nH]c2ccccc12)C(N)=O` [Ac-(D)Leu-(D)Trp-(D)Arg-(D)Ile-(D)His-(D)Trp-NH2] (Ac-[dL][dW][dR][dI][dH][dW]-NH2), the IC50 in experiment [1] was determined as 84 µM; in experiment [2] (setting [3]), 0.96 µM; in experiment [2] (setting [4]), 1.2 µM. Moreover, in experiment [2], the SPECIFICITY is given as 69.
`CC[C@@H](C)[C@@H](NC(=O)[C@@H](CCCNC(=N)N)NC(=O)[C@@H](Cc1c[nH]c2ccccc12)NC(=O)[C@@H](CC(C)C)NC(C)=O)C(=O)N[C@H](CC(C)C)C(=O)N[C@H](CCCNC(=N)N)C(N)=O` [Ac-(D)Leu-(D)Trp-(D)Arg-(D)Ile-(D)Leu-(D)Arg-NH2] (Ac-[dL][dW][dR][dI][dL][dR]-NH2): the half-inhibitory concentration (IC50) was greater than 200 µM in experiment [1], 3.9 µM in experiment [2] (setting [3]) and 4.8 µM in experiment [2] (setting [4]). Moreover, in experiment [2], the SPECIFICITY is recorded as greater than 42.
On to `CC[C@@H](C)[C@@H](NC(=O)[C@@H](Cc1c[nH]c2ccccc12)NC(=O)[C@@H](CC(C)C)NC(C)=O)C(=O)N[C@H](Cc1c[nH]cn1)C(=O)N[C@H](Cc1c[nH]cn1)C(=O)N[C@H](Cc1c[nH]c2ccccc12)C(N)=O` [Ac-(D)Leu-(D)Trp-(D)Ile-(D)His-(D)His-(D)Trp-NH2] (Ac-[dL][dW][dI][dH][dH][dW]-NH2), for which the IC50 in experiment [1] turned out to be 30 µM; in experiment [2] (setting [3]) it was 8.5 µM; in experiment [2] (setting [4]), 12 µM. The SPECIFICITY in experiment [2] stood at 2.4.
Consider `CC[C@@H](C)[C@@H](NC(=O)[C@@H](Cc1c[nH]c2ccccc12)NC(=O)[C@@H](CC(C)C)NC(C)=O)C(=O)N[C@H](Cc1c[nH]cn1)C(=O)N[C@H](CC(C)C)C(=O)N[C@H](Cc1c[nH]c2ccccc12)C(N)=O` [Ac-(D)Leu-(D)Trp-(D)Ile-(D)His-(D)Leu-(D)Trp-NH2] (Ac-[dL][dW][dI][dH][dL][dW]-NH2), for which the half-inhibitory concentration (IC50) worked out at 42 µM in experiment [1] and 3.6 µM in experiment [2] (setting [3]). In addition, the SPECIFICITY in experiment [2] came out at 12.
With `CC[C@@H](C)[C@@H](NC(=O)[C@@H](Cc1c[nH]c2ccccc12)NC(=O)[C@@H](CC(C)C)NC(C)=O)C(=O)N[C@@H](C(=O)N[C@H](Cc1c[nH]cn1)C(=O)N[C@H](CCCNC(=N)N)C(N)=O)[C@H](C)CC` [Ac-(D)Leu-(D)Trp-(D)Ile-(D)Ile-(D)His-(D)Arg-NH2] (Ac-[dL][dW][dI][dI][dH][dR]-NH2), in experiment [2] (setting [3]), the 50% inhibitory concentration (IC50) turned out to be 5.1 µM.
In the case of `CC[C@@H](C)[C@@H](NC(=O)[C@@H](Cc1c[nH]c2ccccc12)NC(=O)[C@@H](CC(C)C)NC(C)=O)C(=O)N[C@@H](C(=O)N[C@H](Cc1c[nH]cn1)C(=O)N[C@H](Cc1c[nH]c2ccccc12)C(N)=O)[C@H](C)CC` [Ac-(D)Leu-(D)Trp-(D)Ile-(D)Ile-(D)His-(D)Trp-NH2] (Ac-[dL][dW][dI][dI][dH][dW]-NH2), in experiment [2] (setting [3]), the IC50 was found to be 8.6 µM.
With `CC[C@@H](C)[C@@H](NC(=O)[C@@H](Cc1c[nH]c2ccccc12)NC(=O)[C@@H](CC(C)C)NC(C)=O)C(=O)N[C@@H](C(=O)N[C@H](CC(C)C)C(=O)N[C@H](CCCNC(=N)N)C(N)=O)[C@H](C)CC` [Ac-(D)Leu-(D)Trp-(D)Ile-(D)Ile-(D)Leu-(D)Arg-NH2] (Ac-[dL][dW][dI][dI][dL][dR]-NH2), the IC50 in experiment [2] (setting [3]) was 7.2 µM.
Regarding `CC[C@@H](C)[C@@H](NC(=O)[C@@H](Cc1c[nH]c2ccccc12)NC(=O)[C@@H](CC(C)C)NC(C)=O)C(=O)N[C@@H](C(=O)N[C@H](CC(C)C)C(=O)N[C@H](Cc1c[nH]c2ccccc12)C(N)=O)[C@H](C)CC` [Ac-(D)Leu-(D)Trp-(D)Ile-(D)Ile-(D)Leu-(D)Trp-NH2] (Ac-[dL][dW][dI][dI][dL][dW]-NH2), the “IC50 (μM) for phosphodiesterase” value in experiment [1] is listed as “activation”. Moreover, the results for the IC50 in experiment [2] (setting [3]) and in experiment [2] (setting [4]) were 36 µM and 29 µM, respectively.
For `CC[C@H](C)[C@H](NC(=O)[C@H](CCC(N)=O)NC(=O)[C@H](CC(C)C)NC(C)=O)C(=O)N[C@@H](Cc1c[nH]cn1)C(=O)N[C@@H](CC(C)C)C(=O)N[C@@H](CCCNC(=N)N)C(N)=O` [Ac-Leu-Gln-Ile-His-Leu-Arg-NH2] (Ac-LQIHLR-NH2), the half-maximal inhibitory concentration (IC50) in experiment [2] (setting [5]) stood at 87 µM.
For `CC(=O)N[C@@H](CC(C)C)C(=O)N[C@@H](Cc1c[nH]c2ccccc12)C(=O)N[C@@H](CCCNC(=N)N)C(=O)N[C@@H](Cc1c[nH]cn1)C(=O)N[C@@H](Cc1c[nH]cn1)C(=O)N[C@@H](Cc1c[nH]c2ccccc12)C(N)=O` [Ac-Leu-Trp-Arg-His-His-Trp-NH2] (Ac-LWRHHW-NH2), in experiment [2], the “calmodulin inhibitory activity, in words” value is on record as “especially high activity”. Besides, the half-maximal inhibitory concentration (IC50) in experiment [2] (setting [5]) turned out to be 1.16 µM.
For the compound `CC(=O)N[C@@H](CC(C)C)C(=O)N[C@@H](Cc1c[nH]c2ccccc12)C(=O)N[C@@H](CCCNC(=N)N)C(=O)N[C@@H](Cc1c[nH]cn1)C(=O)N[C@@H](CC(C)C)C(=O)N[C@@H](Cc1c[nH]c2ccccc12)C(N)=O` [Ac-Leu-Trp-Arg-His-Leu-Trp-NH2] (Ac-LWRHLW-NH2), the half-maximal inhibitory concentration (IC50) is greater than 200 µM in experiment [1], 1.15 µM in experiment [2] (setting [5]) and 1.1 µM in experiment [2] (setting [4]). Moreover, the “calmodulin inhibitory activity, in words” value in experiment [2] is reported as “especially high activity”. Further, in experiment [2], the SPECIFICITY is greater than 182.
Turning to `Clc1ccc(C(c2ccc(Cl)cc2)n2cc[n+](CC(OCc3ccc(Cl)cc3Cl)c3ccc(Cl)cc3Cl)c2)cc1` (centres unmarked) [Calmidazolium, (1-[bis-(4-chlorophenyl)methyl]-3[-2-(2,4-dichlorophenyl)-2[(2,4-dichlorophenyl)methoxy]-ethyl]-1H-imidazolium chloride, reference compound], in experiment [2] (setting [3]), the IC50 came to 9 µM.
